Test results taken from patent publication US10172822B2, “Pharmaceutical use of 3-benzylsulfonylpropionitrile” (Olatec Therapeutics LLC, priority 2013, dated 2019).

Assays:
[1] = test system: arachidonic acid-induced ear swelling; test: topical arachidonic acid-induced ear swelling model in mice; format: in vivo
Procedure: The test compound, indomethacin (positive control), and vehicle were evaluated for anti-inflammatory activity in a topical arachidonic acid-induced ear swelling model in mice. Male ICR mice weighing 22±2 g were used and randomly divided; the test compound and vehicle control had 10 mice, and indomethacin had 5 mice. Arachidonic Acid (0.5 mg in 20 μl of acetone:ethanol/1:1) was applied topically to the anterior and posterior surfaces of the right ear of each mice. Test substances and vehicle, as listed in Table 1 were similarly applied 30 min before and 15 min after arachidonic acid application. The thickness of the right ear and the left ear was measured and the difference calculated as an indication of the inflammation in the right ear. Ear swelling was measured by a Dyer model micrometer gauge at 60 and 90 minutes after arachidonic acid application as an index of inflammation. Percent inhibition was calculated according to the formula: Ic−It/Ic×100, where Ic and It refers to increase of ear thickness (mm) in control and treated mice, respectively. ANOVA and Dunnett's test were employed to ascertain significant difference between vehicle control and treated groups. Significance is set at P<0.05 level.

[2] = test system: tail flick reaction to heat; test: tail flick test in mice (49° C. water bath); format: in vivo
Procedure: The tail flick test is a test of the pain response in animals. The tail flick test is used in basic pain research and to measure the effectiveness of analgesics, by observing the tail flick reaction to heat in an animal. This test assesses the nociceptive response to a local pain stimulus, and the ability of a drug to inhibit this response.
Vehicle control (DMSO) and test compound 3-benzylsulfonylpropionitrilein in DMSO were administered by oral gavage to mice with a volume of 5 mL/kg, immediately prior to testing, at time zero. The test compound was administered at a dosage of 500 mg/kg in DMSO. Positive control morphine in water was administered at time zero by subcutaneous injection at 8 mg/kg to mice. […] The purpose of morphine is […] to serve as a comparison with the test compound. Each group had 10 mice.
The response of mice to heat stimulus was evaluated by measuring the time of tail-flick or tail-flick latency from 49° C. water bath. Briefly, the animal was held with its tail hanging down. Approximately 2 inches of the tail was immersed in a beaker of water at 38±1° C. for about 30 seconds, and this was done twice to acclimate the animal to the procedure.
Subsequently, approximately 2 inches of the tail was immersed in a beaker of water at 49±1° C., at which point a timer was started.
Tail flick measurements were made at 0, 30, 60, and 120 minutes post administration of the dosage of test compound, vehicle, or morphine. An ANOVA was done, and if p<0.05, a Dunnett's t test was employed to calculate significant difference between vehicle control and test compound treated groups. A pairwise Student's t test was used to calculate differences between the morphine group and the control group. […] Analysis with p-values <0.05 is considered significant.

COc1ccc2c(c1)c(CC(=O)O)c(C)n2C(=O)c1ccc(Cl)cc1 [Indomethacin, indomethacin, reference compound]
% Inhibition of ear swelling ([1]; topical application 30 min before and 15 min after arachidonic acid, measured at 90 minutes after arachidonic acid, relative to vehicle): 58%

N#CCCS(=O)(=O)Cc1ccccc1 [3-Benzylsulfonylpropionitrile, 3-benzylsulfonylpropionitrile]
tail flick latency compared with vehicle-treated mice ([2]; oral administration 500 mg/kg in DMSO, 30, 60, and 120 minutes post dosing): statistically significant tail flick latency | anti-inflammatory activity in the mouse ear swelling model ([1]; applied topically, inflammation induced by arachidonic acid): anti-inflammatory

CN1CC[C@]23c4c5ccc(O)c4O[C@H]2[C@@H](O)C=C[C@H]3[C@H]1C5 [morphine]
tail flick latency compared with vehicle-treated mice ([2]; subcutaneous injection 8 mg/kg, 30 and 60 minutes post dosing): statistically significant tail flick latency | tail flick latency compared with vehicle-treated mice ([2]; subcutaneous injection 8 mg/kg, 120 minutes post dosing): not
